From ChEMBL document CHEMBL4052776, “Discovery of 3-morpholino-imidazole[1,5-a]pyrazine BTK inhibitors for rheumatoid arthritis” (Bioorg Med Chem Lett, 2017)

What was measured:
[1] = Total clearance in dog plasma at 2 mg/kg administered as cassette dose; format: ADME, organism-based, Canis lupus familiaris
[2] = Total clearance in rat plasma at 10 mg/kg; format: ADME, organism-based
[3] = molecular target: T1, Tyrosine-protein kinase BTK (Homo sapiens, UniProt Q06187); experiment: Inhibition of BTK in human PBMC assessed as reduction in anti-IgM-induced MIP1beta
T1 sequence (Q06187 whole entry): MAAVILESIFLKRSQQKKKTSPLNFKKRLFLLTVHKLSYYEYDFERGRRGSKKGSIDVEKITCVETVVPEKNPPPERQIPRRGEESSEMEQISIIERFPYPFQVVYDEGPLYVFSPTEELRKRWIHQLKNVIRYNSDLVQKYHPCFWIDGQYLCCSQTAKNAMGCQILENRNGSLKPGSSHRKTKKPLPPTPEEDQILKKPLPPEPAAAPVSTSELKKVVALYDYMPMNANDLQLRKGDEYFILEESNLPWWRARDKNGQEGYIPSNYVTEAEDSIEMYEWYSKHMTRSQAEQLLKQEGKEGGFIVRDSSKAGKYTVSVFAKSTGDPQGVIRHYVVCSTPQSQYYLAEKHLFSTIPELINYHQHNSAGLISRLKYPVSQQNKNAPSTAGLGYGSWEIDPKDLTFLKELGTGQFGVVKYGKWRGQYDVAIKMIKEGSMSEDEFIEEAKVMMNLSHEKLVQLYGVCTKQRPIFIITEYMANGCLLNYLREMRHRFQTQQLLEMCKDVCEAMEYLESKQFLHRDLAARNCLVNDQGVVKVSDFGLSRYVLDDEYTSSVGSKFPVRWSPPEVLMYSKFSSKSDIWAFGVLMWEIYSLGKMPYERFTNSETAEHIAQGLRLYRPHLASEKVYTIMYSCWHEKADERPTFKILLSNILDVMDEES

[4] = molecular target: T1, Tyrosine-protein kinase BTK; experiment: Inhibition of recombinant full-length His6-tagged BTK (unknown origin) expressed in baculovirus infected Sf9 cells using biotinylated A5 peptide as substrate preincubated for 60 mins followed by substrate addition measured after 120 mins by LANCE TR-FRET assay
[5] = Half life in dog at 2 mg/kg administered as cassette dose; format: ADME, organism-based, Canis lupus familiaris; details: in vivo
[6] = molecular target: Tyrosine-protein kinase FRK (Homo sapiens, UniProt P42685); experiment: Inhibition of FRK (unknown origin)
Sequence of Tyrosine-protein kinase FRK (P42685 whole entry): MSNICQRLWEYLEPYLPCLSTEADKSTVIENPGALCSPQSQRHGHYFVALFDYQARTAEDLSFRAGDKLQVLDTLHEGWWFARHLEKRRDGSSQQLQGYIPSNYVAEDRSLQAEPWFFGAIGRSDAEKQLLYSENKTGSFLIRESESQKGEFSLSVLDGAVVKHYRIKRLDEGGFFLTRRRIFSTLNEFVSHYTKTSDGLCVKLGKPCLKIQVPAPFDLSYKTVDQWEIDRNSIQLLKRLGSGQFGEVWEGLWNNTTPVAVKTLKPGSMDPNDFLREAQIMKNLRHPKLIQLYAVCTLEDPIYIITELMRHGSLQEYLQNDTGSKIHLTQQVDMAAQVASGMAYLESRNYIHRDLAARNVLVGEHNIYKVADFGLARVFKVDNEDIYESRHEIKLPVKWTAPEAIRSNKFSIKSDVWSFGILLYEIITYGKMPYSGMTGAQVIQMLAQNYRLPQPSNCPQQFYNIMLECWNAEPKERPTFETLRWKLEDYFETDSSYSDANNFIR

[7] = Oral bioavailability in rat at 10 mg/kg; format: ADME, organism-based; details: in vivo
[8] = molecular target: T2, Cytoplasmic tyrosine-protein kinase BMX (Homo sapiens, UniProt P51813); experiment: Inhibition of BMX (unknown origin)
T2 sequence (P51813 whole entry): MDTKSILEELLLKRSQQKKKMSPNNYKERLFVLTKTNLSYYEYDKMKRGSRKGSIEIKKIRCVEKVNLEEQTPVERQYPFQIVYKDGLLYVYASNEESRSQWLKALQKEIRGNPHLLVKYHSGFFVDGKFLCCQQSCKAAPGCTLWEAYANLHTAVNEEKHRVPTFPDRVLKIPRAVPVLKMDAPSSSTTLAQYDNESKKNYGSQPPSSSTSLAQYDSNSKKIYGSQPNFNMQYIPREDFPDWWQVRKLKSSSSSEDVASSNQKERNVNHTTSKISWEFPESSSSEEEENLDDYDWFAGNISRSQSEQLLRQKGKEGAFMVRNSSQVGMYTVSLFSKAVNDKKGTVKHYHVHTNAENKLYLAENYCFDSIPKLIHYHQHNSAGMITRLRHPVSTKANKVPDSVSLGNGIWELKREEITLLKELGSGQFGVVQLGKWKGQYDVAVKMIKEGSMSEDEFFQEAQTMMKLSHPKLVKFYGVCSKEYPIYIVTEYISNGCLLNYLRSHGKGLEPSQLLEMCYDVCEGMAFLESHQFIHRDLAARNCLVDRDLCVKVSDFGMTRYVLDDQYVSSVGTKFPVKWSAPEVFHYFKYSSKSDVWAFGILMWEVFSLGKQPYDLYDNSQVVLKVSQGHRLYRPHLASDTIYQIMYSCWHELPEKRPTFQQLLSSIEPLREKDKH

[9] = molecular target: Tyrosine-protein kinase CSK (Homo sapiens, UniProt P41240); experiment: Inhibition of CSK (unknown origin)
Sequence of Tyrosine-protein kinase CSK (P41240 whole entry): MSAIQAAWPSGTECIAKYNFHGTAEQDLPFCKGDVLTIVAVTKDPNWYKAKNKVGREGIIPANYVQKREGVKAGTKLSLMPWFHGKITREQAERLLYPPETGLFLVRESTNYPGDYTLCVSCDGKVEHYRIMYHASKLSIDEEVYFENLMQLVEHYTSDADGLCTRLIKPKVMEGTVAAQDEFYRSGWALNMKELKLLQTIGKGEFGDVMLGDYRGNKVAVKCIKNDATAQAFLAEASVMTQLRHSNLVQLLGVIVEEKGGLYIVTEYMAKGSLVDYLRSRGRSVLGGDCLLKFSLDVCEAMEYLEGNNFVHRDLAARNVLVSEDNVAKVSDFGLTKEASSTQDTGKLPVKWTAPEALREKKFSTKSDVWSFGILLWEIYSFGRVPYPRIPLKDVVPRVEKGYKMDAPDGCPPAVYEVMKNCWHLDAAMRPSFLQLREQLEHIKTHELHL

[10] = molecular target: Protein-tyrosine kinase 6 (Homo sapiens, UniProt Q13882); experiment: Inhibition of PTK6 (unknown origin)
[11] = molecular target: T3, Tyrosine-protein kinase Tec (Homo sapiens, UniProt P42680); experiment: Inhibition of TEC (unknown origin)
T3 sequence (P42680 whole entry): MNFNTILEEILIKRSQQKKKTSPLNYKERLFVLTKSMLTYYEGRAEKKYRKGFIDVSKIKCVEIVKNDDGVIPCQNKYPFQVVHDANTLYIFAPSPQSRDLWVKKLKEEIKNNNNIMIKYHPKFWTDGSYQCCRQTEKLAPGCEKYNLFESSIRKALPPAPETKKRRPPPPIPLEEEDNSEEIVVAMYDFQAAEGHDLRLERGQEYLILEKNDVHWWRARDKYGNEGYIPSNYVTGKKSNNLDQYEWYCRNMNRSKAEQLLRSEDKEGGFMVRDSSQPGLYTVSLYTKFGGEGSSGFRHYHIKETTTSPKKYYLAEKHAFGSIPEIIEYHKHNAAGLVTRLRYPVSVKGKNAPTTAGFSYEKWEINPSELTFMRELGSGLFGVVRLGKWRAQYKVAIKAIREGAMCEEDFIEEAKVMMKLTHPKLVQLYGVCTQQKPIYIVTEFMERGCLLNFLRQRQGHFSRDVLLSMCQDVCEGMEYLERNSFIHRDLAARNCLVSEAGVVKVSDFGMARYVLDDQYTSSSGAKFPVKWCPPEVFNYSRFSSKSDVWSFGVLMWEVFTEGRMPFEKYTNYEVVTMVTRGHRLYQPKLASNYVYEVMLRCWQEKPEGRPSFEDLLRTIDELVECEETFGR

[12] = molecular target: Tyrosine-protein kinase Srms (Homo sapiens, UniProt Q9H3Y6); experiment: Inhibition of SRMS (unknown origin)
[13] = Half life in rat at 10 mg/kg; format: ADME, organism-based; details: in vivo
[14] = molecular target: Tyrosine-protein kinase Fgr (Homo sapiens, UniProt P09769); experiment: Inhibition of FGR (unknown origin)
Sequence of Tyrosine-protein kinase Fgr (P09769 whole entry): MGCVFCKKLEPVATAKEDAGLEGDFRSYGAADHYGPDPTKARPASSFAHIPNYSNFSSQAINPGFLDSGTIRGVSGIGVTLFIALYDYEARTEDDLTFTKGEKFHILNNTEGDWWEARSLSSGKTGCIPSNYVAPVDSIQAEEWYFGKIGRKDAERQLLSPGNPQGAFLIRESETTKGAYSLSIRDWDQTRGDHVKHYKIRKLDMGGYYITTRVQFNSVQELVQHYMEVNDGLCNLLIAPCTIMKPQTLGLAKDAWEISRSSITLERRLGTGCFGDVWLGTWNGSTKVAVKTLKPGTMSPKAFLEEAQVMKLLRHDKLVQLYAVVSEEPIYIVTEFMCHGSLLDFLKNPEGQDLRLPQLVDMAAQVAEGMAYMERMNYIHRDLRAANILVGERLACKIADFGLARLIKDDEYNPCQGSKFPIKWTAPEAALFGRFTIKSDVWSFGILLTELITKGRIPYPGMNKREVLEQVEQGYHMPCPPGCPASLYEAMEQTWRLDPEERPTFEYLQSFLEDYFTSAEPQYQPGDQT

[15] = molecular target: Proto-oncogene tyrosine-protein kinase Src (Homo sapiens, UniProt P12931); experiment: Inhibition of SRC (unknown origin)
Sequence of Proto-oncogene tyrosine-protein kinase Src (P12931 2-536 limits assumed): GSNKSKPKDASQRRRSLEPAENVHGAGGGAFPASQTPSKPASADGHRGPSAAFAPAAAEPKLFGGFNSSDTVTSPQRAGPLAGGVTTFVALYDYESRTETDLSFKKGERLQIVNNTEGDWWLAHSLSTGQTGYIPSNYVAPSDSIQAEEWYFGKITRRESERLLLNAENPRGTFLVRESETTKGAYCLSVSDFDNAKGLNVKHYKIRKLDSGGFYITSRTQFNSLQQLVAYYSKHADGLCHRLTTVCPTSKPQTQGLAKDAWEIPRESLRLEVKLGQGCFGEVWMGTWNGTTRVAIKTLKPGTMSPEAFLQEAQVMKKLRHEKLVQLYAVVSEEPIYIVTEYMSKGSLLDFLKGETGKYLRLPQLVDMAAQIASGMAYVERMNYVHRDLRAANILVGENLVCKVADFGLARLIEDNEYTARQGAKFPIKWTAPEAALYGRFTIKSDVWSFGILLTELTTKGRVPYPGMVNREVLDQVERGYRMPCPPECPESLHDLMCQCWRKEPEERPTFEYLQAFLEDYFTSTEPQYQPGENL

[16] = molecular target: Tyrosine-protein kinase Yes (Homo sapiens, UniProt P07947); experiment: Inhibition of YES1 (unknown origin)
Sequence of Tyrosine-protein kinase Yes (P07947 whole entry): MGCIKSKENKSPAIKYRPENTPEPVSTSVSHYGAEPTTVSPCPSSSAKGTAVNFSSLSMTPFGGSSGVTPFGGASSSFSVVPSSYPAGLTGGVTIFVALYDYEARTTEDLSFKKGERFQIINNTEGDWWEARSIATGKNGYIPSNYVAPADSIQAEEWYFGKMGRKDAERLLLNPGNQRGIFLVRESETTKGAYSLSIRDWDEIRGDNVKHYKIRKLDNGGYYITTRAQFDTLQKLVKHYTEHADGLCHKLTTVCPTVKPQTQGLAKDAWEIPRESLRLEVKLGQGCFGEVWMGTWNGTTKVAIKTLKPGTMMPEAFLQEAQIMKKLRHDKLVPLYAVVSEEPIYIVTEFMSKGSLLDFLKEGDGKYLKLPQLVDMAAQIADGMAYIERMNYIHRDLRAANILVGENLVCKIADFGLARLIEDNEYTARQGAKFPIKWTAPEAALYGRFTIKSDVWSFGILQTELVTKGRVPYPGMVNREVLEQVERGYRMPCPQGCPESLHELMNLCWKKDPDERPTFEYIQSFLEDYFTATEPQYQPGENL

[17] = molecular target: Tyrosine-protein kinase Lck (Homo sapiens, UniProt P06239); experiment: Inhibition of LCK (unknown origin)
Sequence of Tyrosine-protein kinase Lck (P06239 whole entry): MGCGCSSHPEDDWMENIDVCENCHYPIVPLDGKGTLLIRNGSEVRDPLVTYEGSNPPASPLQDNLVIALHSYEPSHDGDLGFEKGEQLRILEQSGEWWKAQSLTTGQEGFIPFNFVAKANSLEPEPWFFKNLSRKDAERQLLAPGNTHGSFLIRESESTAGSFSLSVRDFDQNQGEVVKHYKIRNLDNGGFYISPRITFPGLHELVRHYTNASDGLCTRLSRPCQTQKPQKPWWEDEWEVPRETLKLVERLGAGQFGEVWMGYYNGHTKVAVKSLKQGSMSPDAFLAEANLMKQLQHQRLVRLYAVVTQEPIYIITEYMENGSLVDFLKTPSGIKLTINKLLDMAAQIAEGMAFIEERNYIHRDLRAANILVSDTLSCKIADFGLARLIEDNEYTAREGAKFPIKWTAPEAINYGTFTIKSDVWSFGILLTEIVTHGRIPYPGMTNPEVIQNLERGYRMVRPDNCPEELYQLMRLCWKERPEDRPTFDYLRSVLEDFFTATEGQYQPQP

[18] = molecular target: Receptor tyrosine-protein kinase erbB-4 (Homo sapiens, UniProt Q15303); experiment: Inhibition of ERBB4 (unknown origin)
[19] = molecular target: Tyrosine-protein kinase Blk (Homo sapiens, UniProt P51451); experiment: Inhibition of BLK (unknown origin)
Sequence of Tyrosine-protein kinase Blk (P51451 whole entry): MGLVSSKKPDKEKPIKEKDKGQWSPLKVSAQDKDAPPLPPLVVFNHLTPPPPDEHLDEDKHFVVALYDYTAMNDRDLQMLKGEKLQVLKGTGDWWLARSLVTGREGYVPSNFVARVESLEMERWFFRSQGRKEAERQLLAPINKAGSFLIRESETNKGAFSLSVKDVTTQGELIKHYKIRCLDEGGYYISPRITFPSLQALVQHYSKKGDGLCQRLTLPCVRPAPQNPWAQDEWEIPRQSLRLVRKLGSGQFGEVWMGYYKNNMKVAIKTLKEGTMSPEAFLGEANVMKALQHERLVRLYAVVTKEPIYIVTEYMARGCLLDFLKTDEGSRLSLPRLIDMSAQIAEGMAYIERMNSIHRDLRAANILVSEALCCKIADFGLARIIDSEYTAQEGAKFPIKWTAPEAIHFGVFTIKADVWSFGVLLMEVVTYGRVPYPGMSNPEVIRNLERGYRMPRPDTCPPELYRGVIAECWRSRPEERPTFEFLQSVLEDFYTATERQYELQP

[20] = molecular target: Tyrosine-protein kinase Lyn (Homo sapiens, UniProt P07948); experiment: Inhibition of LYNB (unknown origin)
Sequence of Tyrosine-protein kinase Lyn (P07948 whole entry): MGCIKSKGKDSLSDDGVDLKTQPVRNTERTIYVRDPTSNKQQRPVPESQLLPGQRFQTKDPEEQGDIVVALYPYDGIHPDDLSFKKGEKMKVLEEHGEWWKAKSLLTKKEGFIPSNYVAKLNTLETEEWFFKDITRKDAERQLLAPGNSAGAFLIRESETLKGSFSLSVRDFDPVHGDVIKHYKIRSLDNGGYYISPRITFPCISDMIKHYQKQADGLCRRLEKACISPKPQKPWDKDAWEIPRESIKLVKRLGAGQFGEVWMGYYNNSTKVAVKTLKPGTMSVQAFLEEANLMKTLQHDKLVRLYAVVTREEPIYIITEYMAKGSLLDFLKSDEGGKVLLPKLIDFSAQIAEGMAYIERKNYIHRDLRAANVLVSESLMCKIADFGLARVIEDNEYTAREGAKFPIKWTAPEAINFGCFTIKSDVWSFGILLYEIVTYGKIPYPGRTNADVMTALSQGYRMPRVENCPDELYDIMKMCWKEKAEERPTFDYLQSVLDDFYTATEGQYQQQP

[21] = molecular target: T4, Tyrosine-protein kinase TXK (Homo sapiens, UniProt P42681); experiment: Inhibition of TXK (unknown origin)
T4 sequence (P42681 whole entry): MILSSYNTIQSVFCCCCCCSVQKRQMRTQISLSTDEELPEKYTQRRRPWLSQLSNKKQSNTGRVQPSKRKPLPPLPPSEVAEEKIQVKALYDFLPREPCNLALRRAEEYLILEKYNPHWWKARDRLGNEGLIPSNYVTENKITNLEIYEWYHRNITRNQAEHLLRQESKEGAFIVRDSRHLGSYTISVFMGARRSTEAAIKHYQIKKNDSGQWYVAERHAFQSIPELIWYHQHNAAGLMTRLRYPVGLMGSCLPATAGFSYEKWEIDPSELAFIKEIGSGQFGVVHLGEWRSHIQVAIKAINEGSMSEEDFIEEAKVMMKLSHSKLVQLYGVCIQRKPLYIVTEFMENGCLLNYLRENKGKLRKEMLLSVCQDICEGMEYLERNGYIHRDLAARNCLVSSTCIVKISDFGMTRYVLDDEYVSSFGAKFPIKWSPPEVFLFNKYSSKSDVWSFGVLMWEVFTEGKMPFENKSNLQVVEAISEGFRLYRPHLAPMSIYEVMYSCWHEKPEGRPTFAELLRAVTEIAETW

[22] = molecular target: Tyrosine-protein kinase Fyn (Homo sapiens, UniProt P06241); experiment: Inhibition of FYN (unknown origin)
Homo sapiens [23] = organism: Homo sapiens; experiment: Selectivity ratio of IC50 for CSK (unknown origin) to IC50 for BTK (unknown origin)
Homo sapiens [24] = organism: Homo sapiens; experiment: Selectivity ratio of IC50 for FRK (unknown origin) to IC50 for BTK (unknown origin)
[25] = molecular target: Voltage-gated inwardly rectifying potassium channel KCNH2 (Homo sapiens, UniProt Q12809); experiment: Inhibition of human ERG by [35S]-MK499 displacement or iKr channel assay
Homo sapiens [26] = organism: Homo sapiens; experiment: Selectivity ratio of IC50 for TEC (unknown origin) to IC50 for BTK (unknown origin)
Homo sapiens [27] = organism: Homo sapiens; experiment: Selectivity ratio of IC50 for TXK (unknown origin) to IC50 for BTK (unknown origin)
Homo sapiens [28] = organism: Homo sapiens; experiment: Selectivity ratio of IC50 for PTK6 (unknown origin) to IC50 for BTK (unknown origin)
Homo sapiens [29] = organism: Homo sapiens; experiment: Selectivity ratio of IC50 for ERBB4 (unknown origin) to IC50 for BTK (unknown origin)
Homo sapiens [30] = organism: Homo sapiens; experiment: Selectivity ratio of IC50 for LYNB (unknown origin) to IC50 for BTK (unknown origin)
Homo sapiens [31] = organism: Homo sapiens; experiment: Selectivity ratio of IC50 for FYN (unknown origin) to IC50 for BTK (unknown origin)
Homo sapiens [32] = organism: Homo sapiens; experiment: Selectivity ratio of IC50 for SRC (unknown origin) to IC50 for BTK (unknown origin)
Homo sapiens [33] = organism: Homo sapiens; experiment: Selectivity ratio of IC50 for BMX (unknown origin) to IC50 for BTK (unknown origin)
Homo sapiens [34] = organism: Homo sapiens; experiment: Selectivity ratio of IC50 for BLK (unknown origin) to IC50 for BTK (unknown origin)
Homo sapiens [35] = organism: Homo sapiens; experiment: Selectivity ratio of IC50 for YES1 (unknown origin) to IC50 for BTK (unknown origin)
Homo sapiens [36] = organism: Homo sapiens; experiment: Selectivity ratio of IC50 for FGR (unknown origin) to IC50 for BTK (unknown origin)
Homo sapiens [37] = organism: Homo sapiens; experiment: Selectivity ratio of IC50 for SRMS (unknown origin) to IC50 for BTK (unknown origin)
Homo sapiens [38] = organism: Homo sapiens; experiment: Selectivity ratio of IC50 for LCK (unknown origin) to IC50 for BTK (unknown origin)

For Nc1nccn2c([C@H]3CN(C4CCOCC4)CCO3)nc(-c3ccc(C(=O)Nc4cc(C(F)(F)F)ccn4)cc3F)c12, the clearance [1] was 5.9 mL/min/kg, the clearance [2] was 23 mL/min/kg and the IC50 [3] was 13 nM. The IC50 [4] was 0.59 to 0.6 nM, the half-life [5] was 186 min and the IC50 [6] was 132 nM. For the same compound, the bioavailability [7] was 75%, the IC50 [8] was 200 nM and the IC50 [9] was 665 nM. For the same compound, the IC50 [10] was 113 nM, the IC50 [11] was 191 nM and the IC50 [12] was 65 nM. The half-life [13] was 66 min, the IC50 [14] was 39 nM and the IC50 [15] was 112 nM. For the same compound, the IC50 [16] was 60 nM, the IC50 [17] was 21 nM and the IC50 [18] was 76 nM. It also gave an IC50 [19] of 50 nM, an IC50 [20] of 399 nM and an IC50 [21] of 282 nM. It also gave an IC50 [22] of 248 nM.
Compound COCC(=O)N1CCO[C@@H](c2nc(-c3ccc(C(=O)Nc4cc(C(F)(F)F)ccn4)cc3F)c3c(N)nccn23)C1 has a Ratio IC50 (Homo sapiens [23]) of 2230, a Ratio IC50 (Homo sapiens [24]) of 578 and a clearance [1] of 13.8 mL/min/kg. It also gave an IC50 [25] of 24 µM, a Ratio IC50 (Homo sapiens [26]) of 626 and a clearance [2] of 8.2 mL/min/kg. It also gave an IC50 [3] of 14 nM, an IC50 [4] of 0.37 to 0.4 nM and a half-life [5] of 150 min. The IC50 [6] was 214 nM, the Ratio IC50 (Homo sapiens [27]) was 691 and the bioavailability [7] was 42%. The Ratio IC50 (Homo sapiens [28]) was 209, the IC50 [8] was 331 nM and the IC50 [9] was 626 nM. It also gave an IC50 [10] of 77 nM, an IC50 [11] of 232 nM and an IC50 [12] of 76 nM. It also gave a Ratio IC50 (Homo sapiens [29]) of 457, a Ratio IC50 (Homo sapiens [30]) of 723 and a Ratio IC50 (Homo sapiens [31]) of 1540. For the same compound, the Ratio IC50 (Homo sapiens [32]) was 333, the half-life [13] was 48 min and the Ratio IC50 (Homo sapiens [33]) was 895. For the same compound, the IC50 [14] was 69 nM, the IC50 [15] was 123 nM and the IC50 [16] was 73 nM. It also gave a Ratio IC50 (Homo sapiens [34]) of 212, an IC50 [17] of 28 nM and an IC50 [18] of 169 nM. For the same compound, the Ratio IC50 (Homo sapiens [35]) was 198, the IC50 [19] was 78 nM and the IC50 [20] was 268 nM. It also gave a Ratio IC50 (Homo sapiens [36]) of 187, a Ratio IC50 (Homo sapiens [37]) of 205 and an IC50 [21] of 256 nM. It also gave a Ratio IC50 (Homo sapiens [38]) of 75 and an IC50 [22] of 571 nM.
